From PubChem BioAssay AID2060496 (Molecular Pharmacology Branch, DTP, NCI, 2025)

System: 276233-004-R-J1-PDC complex spheroid viability
Experiment: Anticancer human tumor 276233-004-R-J1-PDC patient-derived colon adenocarcinoma cell line growth inhibition [GQUAD]
Settings: for IC50: curve of first compound; for viability, T/C: stronger effect = lower value
In short: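 Multi-cell-type spheroids of tumor cells with HUVEC and mesenchymal stem cells, treated with drug combinations. Concentrations descend in half-log steps from near clinical Cmax, or from 10 microM where Cmax is unknown; viability read-out.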

[1] = second compound 0.0316 µM, first compound 0.0316 µM
[2] = second compound 0.0316 µM, first compound 0.1 µM
[3] = second compound 0.0316 µM, first compound 0.316 µM
[4] = second compound 0.0316 µM, first compound 1 µM
[5] = second compound 0.0316 µM, first compound 3.16 µM
[6] = second compound 0.0316 µM, first compound 10 µM
[7] = second compound 0.1 µM, first compound 0.0316 µM
[8] = second compound 0.1 µM, first compound 0.1 µM
[9] = second compound 0.1 µM, first compound 0.316 µM
[10] = second compound 0.1 µM, first compound 1 µM
[11] = second compound 0.1 µM, first compound 3.16 µM
[12] = second compound 0.1 µM, first compound 10 µM
[13] = second compound 0.316 µM, first compound 0.0316 µM
[14] = second compound 0.316 µM, first compound 0.1 µM
[15] = second compound 0.316 µM, first compound 0.316 µM
[16] = second compound 0.316 µM, first compound 1 µM
[17] = second compound 0.316 µM, first compound 3.16 µM
[18] = second compound 0.316 µM, first compound 10 µM
[19] = second compound 1 µM, first compound 0.0316 µM
[20] = second compound 1 µM, first compound 0.1 µM
[21] = second compound 1 µM, first compound 0.316 µM
[22] = second compound 1 µM, first compound 1 µM
[23] = second compound 1 µM, first compound 3.16 µM
[24] = second compound 1 µM, first compound 10 µM
[25] = second compound 3.16 µM, first compound 0.0316 µM
[26] = second compound 3.16 µM, first compound 0.1 µM
[27] = second compound 3.16 µM, first compound 0.316 µM
[28] = second compound 3.16 µM, first compound 1 µM
[29] = second compound 3.16 µM, first compound 3.16 µM
[30] = second compound 3.16 µM, first compound 10 µM
[31] = second compound 10 µM, first compound 0.0316 µM
[32] = second compound 10 µM, first compound 0.1 µM
[33] = second compound 10 µM, first compound 0.316 µM
[34] = second compound 10 µM, first compound 1 µM
[35] = second compound 10 µM, first compound 3.16 µM
[36] = second compound 10 µM, first compound 10 µM
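Also: spheroids exposed to drugs for seven days.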
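For viability, T/C in this document: 100% = DMSO vehicle control viability.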

## COc1cccc2c1C(=O)c1c(O)c3c(c(O)c1C2=O)CC(O)(C(=O)CO)CC3OC1CC(N)C(O)C(C)O1 (centres undefined) + Cc1cnc(CNC(=O)c2c(=O)c3ccc(N4CCCN(C)CC4)nc3n3c2sc2ccccc23)cn1
Second compound 0.0316 µM
  IC50: 9.69 µM
Second compound 0.1 µM
  IC50: 6.82 µM
Second compound 0.316 µM
  IC50: 3.53 µM
Second compound 1 µM
  IC50: 2.33 µM
Second compound 3.16 µM
  IC50: 2.16 µM
Second compound 10 µM
  IC50: 2.03 µM
[1]
  viability, T/C: 81.5%
[2]
  viability, T/C: 87.3%
[3]
  viability, T/C: 86%
[4]
  viability, T/C: 67.1%
[5]
  viability, T/C: 79.6%
[6]
  viability, T/C: 48.6%
[7]
  viability, T/C: 79%
[8]
  viability, T/C: 94.9%
[9]
  viability, T/C: 72.2%
[10]
  viability, T/C: 87.9%
[11]
  viability, T/C: 66.3%
[12]
  viability, T/C: 41.9%
[13]
  viability, T/C: 80.4%
[14]
  viability, T/C: 92.3%
[15]
  viability, T/C: 87.2%
[16]
  viability, T/C: 78.3%
[17]
  viability, T/C: 51.8%
[18]
  viability, T/C: 35%
[19]
  viability, T/C: 78%
[20]
  viability, T/C: 95.8%
[21]
  viability, T/C: 83.1%
[22]
  viability, T/C: 73%
[23]
  viability, T/C: 41.8%
[24]
  viability, T/C: 24.4%
[25]
  viability, T/C: 78.1%
[26]
  viability, T/C: 78.8%
[27]
  viability, T/C: 77.4%
[28]
  viability, T/C: 60.4%
[29]
  viability, T/C: 44.5%
[30]
  viability, T/C: 13%
[31]
  viability, T/C: 73.2%
[32]
  viability, T/C: 60.6%
[33]
  viability, T/C: 64.5%
[34]
  viability, T/C: 69%
[35]
  viability, T/C: 39.4%
[36]
  viability, T/C: 13.5%

## Nc1ccn(C2OC(CO)C(O)C2(F)F)c(=O)n1 (centres undefined) + Cc1cnc(CNC(=O)c2c(=O)c3ccc(N4CCCN(C)CC4)nc3n3c2sc2ccccc23)cn1
Second compound 0.0316 µM
  IC50: > 10 µM
Second compound 0.1 µM
  IC50: > 10 µM
Second compound 0.316 µM
  IC50: > 10 µM
Second compound 1 µM
  IC50: > 10 µM
Second compound 3.16 µM
  IC50: > 10 µM
Second compound 10 µM
  IC50: > 10 µM
[1]
  viability, T/C: 82.7%
[2]
  viability, T/C: 77.7%
[3]
  viability, T/C: 83.8%
[4]
  viability, T/C: 81.1%
[5]
  viability, T/C: 88.4%
[6]
  viability, T/C: 72.6%
[7]
  viability, T/C: 89.8%
[8]
  viability, T/C: 87.9%
[9]
  viability, T/C: 80.7%
[10]
  viability, T/C: 93.3%
[11]
  viability, T/C: 84.4%
[12]
  viability, T/C: 79.9%
[13]
  viability, T/C: 80%
[14]
  viability, T/C: 97.9%
[15]
  viability, T/C: 86.6%
[16]
  viability, T/C: 80.4%
[17]
  viability, T/C: 77%
[18]
  viability, T/C: 76.7%
[19]
  viability, T/C: 94.2%
[20]
  viability, T/C: 78.8%
[21]
  viability, T/C: 105%
[22]
  viability, T/C: 83.8%
[23]
  viability, T/C: 82.5%
[24]
  viability, T/C: 79.9%
[25]
  viability, T/C: 80%
[26]
  viability, T/C: 68%
[27]
  viability, T/C: 91.8%
[28]
  viability, T/C: 73.2%
[29]
  viability, T/C: 66.3%
[30]
  viability, T/C: 62.3%
[31]
  viability, T/C: 65.8%
[32]
  viability, T/C: 75.2%
[33]
  viability, T/C: 69.5%
[34]
  viability, T/C: 78.2%
[35]
  viability, T/C: 65.2%
[36]
  viability, T/C: 57.5%
